Earlier results on one molecule are cited in US20220193200A1, “TANNIC ACID/FE (III) NANOPARTICLES AND METHODS OF DRUG DELIVERY” (The Johns Hopkins University, priority 2019, published 2022).

The structures appear in SMILES notation.

Regarding `O=C(OC[C@H]1O[C@@H](OC(=O)c2cc(O)c(O)c(OC(=O)c3cc(O)c(O)c(O)c3)c2)[C@H](OC(=O)c2cc(O)c(O)c(OC(=O)c3cc(O)c(O)c(O)c3)c2)[C@@H](OC(=O)c2cc(O)c(O)c(OC(=O)c3cc(O)c(O)c(O)c3)c2)[C@@H]1OC(=O)c1cc(O)c(O)c(OC(=O)c2cc(O)c(O)c(O)c2)c1)c1cc(O)c(O)c(OC(=O)c2cc(O)c(O)c(O)c2)c1` [tannic acid, Tannic acid], the pKa result is “around 6”.
